# Data from BindingDB's records for PubMed 34236862 (Lodz University of Technology, 2021).
# Assay: Inhibition of Rac1 GTPase in human MDA-MB-231 cells assessed as inhibition of cell proliferation treated for 72 hrs by MTT assay
compound,measurement,value
Cc1cc(C)cc(NC(=N)Nc2ccccc2C(F)(F)F)c1,IC50,21 µM
